Holding throughout (type): in vivo
The subject of test [1] is Amaranthus retoflexus (AMARE). Nature of the test: Pre-emergence biological efficacy, glasshouse pot test. The following applies: Amaranthus retroflexus, 312 h; pre-emergence, 1,000 g/ha, evaluated after 13 days (100=total damage; 0=no damage); read-out: Percentage damage AMARE. The gist of the method:
(§1)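 Sow seeds in pots of standard soil; after one day in the glasshouse, spray test compound (1000 or 250 g/ha) in aqueous acetone/water with 0.5% Tween 20. Grow 13 days at 24/16 °C day/night, then score damage from 0 to 100.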

Test [2] concerns Echinochloa crus-galli (ECHCG). The test is described as above. To be noted: 312 h, pre-emergence, 1,000 g/ha, evaluated after 13 days (100=total damage; 0=no damage), read-out: Percentage damage ECHCG. The gist of the method:
as §1

The subject of test [3] is Setaria faberi (SETFA). The description is as above. To be noted: 312 h, pre-emergence, 1,000 g/ha, evaluated after 13 days (100=total damage; 0=no damage), read-out: Percentage damage SETFA. The gist of the method:
as §1

For test [4], the system named is Solanum nigrum (SOLNI). The description is as above. The following applies: 312 h, pre-emergence, 1,000 g/ha, evaluated after 13 days (100=total damage; 0=no damage), read-out: Percentage damage SOLNI. The gist of the method:
as §1

Test [5] relates to Ipomea hederaceae (IPOHE). The test is described as above. To be noted: Ipomoea hederacea, 312 h; pre-emergence, 1,000 g/ha, evaluated after 13 days (100=total damage; 0=no damage); read-out: Percentage damage IPOHE. The gist of the method:
as §1

Test [6] concerns Alopecurus myosuroides (ALOMY). The description is as above. To be noted: 312 h, pre-emergence, 1,000 g/ha, evaluated after 13 days (100=total damage; 0=no damage), read-out: Percentage damage ALOMY. The gist of the method:
as §1

Test [7] has as its system Amaranthus retoflexus (AMARE). Nature of the test: Post-emergence biological efficacy, glasshouse pot test. The following applies: Amaranthus retroflexus, 312 h; post-emergence, 1,000 g/ha, evaluated after 13 days (100=total damage; 0=no damage); read-out: Percentage damage caused to weed species, AMARE. The gist of the method:
(§2)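 Scored 13 days after spraying on a 0 (no damage) to 100 (total damage) scale. Treatment was a post-emergence spray at 1000 or 250 g/ha, from acetone/water 50:50 plus 0.5% Tween 20, onto 8-day-old plants in soil pots. Growth at 24/16° C, 14 h photoperiod, 65% humidity, watered twice daily.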

For test [8], the system named is Echinochloa crus-galli (ECHCG). The test is described as above. The following applies: 312 h, post-emergence, 1,000 g/ha, evaluated after 13 days (100=total damage; 0=no damage), read-out: Percentage damage caused to weed species, ECHCG. The gist of the method: as §2
Test [9] deals with Setaria faberi (SETFA). The description is as above. The following applies: 312 h, post-emergence, 1,000 g/ha, evaluated after 13 days (100=total damage; 0=no damage), read-out: Percentage damage caused to weed species, SETFA. The gist of the method: as §2
In test [10] the test system is Solanum nigrum (SOLNI). The description is as above. The following applies: 312 h, post-emergence, 1,000 g/ha, evaluated after 13 days (100=total damage; 0=no damage), read-out: Percentage damage caused to weed species, SOLNI. The gist of the method:
as §2

For test [11], the system named is Ipomea hederaceae (IPOHE). The test is described as above. To be noted: Ipomoea hederacea, 312 h; post-emergence, 1,000 g/ha, evaluated after 13 days (100=total damage; 0=no damage); read-out: Percentage damage caused to weed species, IPOHE. The gist of the method: as §2
Test [12] relates to Alopecurus myosuroides (ALOMY). The description is as above. To be noted: 312 h, post-emergence, 1,000 g/ha, evaluated after 13 days (100=total damage; 0=no damage), read-out: Percentage damage caused to weed species, ALOMY. The gist of the method:
as §2

Pest or weed control data for nine molecules are collected here from US20110086759A1, “CHEMICAL COMPOUNDS” (SYNGENTA CROP PROTECTION, INC., priority 2007, published 2011).

With `COC(=O)c1nc(C2CC2)nc(NCc2ccccc2C(F)(F)F)c1Cl` [Compound 4-75, 5-Chloro-2-cyclopropyl-6-methoxycarbonyl-4-(2-trifluoromethyl-phenylmethyl-amino)-pyrimidine], the pest or weed control at 1000 g/ha in test [1] amounted to 50%; in [2] it was 0%; with Setaria faberi (SETFA) [3], 10%; in the test with Solanum nigrum (SOLNI) [4], 30%; in test [5], 20%; in test [6], 10%. The pest or weed control at 1000 g/ha in [7] was 100%; in test [8], 50%; in the test on Setaria faberi (SETFA) [9], 90%; in the test on Solanum nigrum (SOLNI) [10] it was 100%; in test [11] it was 100%; in test [12], 20%.

For the molecule `COC(=O)c1nc(C2CC2)nc(NCc2cccc(C(F)(F)F)c2)c1Cl` [Compound 4-76, 5-Chloro-2-cyclopropyl-6-methoxycarbonyl-4-(3-trifluoromethyl-phenylmethyl-amino)pyrimidine], the pest or weed control at 1000 g/ha worked out at 60% in [1]; 60% in test [2]; 50% in the test with Setaria faberi (SETFA) [3]; 60% in the test with Solanum nigrum (SOLNI) [4]; 70% in [5]; 40% in test [6]. Moreover, the pest or weed control at 1000 g/ha stood at 100% in test [7]; 70% in [8]; 90% with Setaria faberi (SETFA) [9]; 100% in the test with Solanum nigrum (SOLNI) [10]; 100% in [11]; 40% in [12].

Turning to `COC(=O)c1nc(C2CC2)nc(NCc2ccc(C(F)(F)F)cc2)c1Cl` [Compound 4-77, 5-Chloro-2-cyclopropyl-6-methoxycarbonyl-4-(4-trifluoromethyl-phenylmethyl-amino)pyrimidine], the pest or weed control at 1000 g/ha in [1] turned out to be 50%; in [2], 30%; in the test on Setaria faberi (SETFA) [3], 0%; in the test on Solanum nigrum (SOLNI) [4], 40%; in test [5] it was 40%; in test [6], 0%. In addition, the pest or weed control at 1000 g/ha in test [7] came out at 100%; in test [8], 90%; with Setaria faberi (SETFA) [9], 90%; in the test on Solanum nigrum (SOLNI) [10], 100%; in test [11], 100%; in [12], 20%.

Take `COC(=O)c1nc(C2CC2)nc(NCc2ccccc2OC)c1Cl` [Compound 4-78, 5-Chloro-2-cyclopropyl-6-methoxycarbonyl-4-(2-methoxyphenyl-methylamino)-pyrimidine]: the pest or weed control at 1000 g/ha in [1] came out at 90%; in test [2], 60%; with Setaria faberi (SETFA) [3] it was 40%; in the test with Solanum nigrum (SOLNI) [4] it was 90%; in [5], 100%; in [6], 20%. The pest or weed control at 1000 g/ha in test [7] was 100%; in test [8] it was 70%; in the test with Setaria faberi (SETFA) [9], 80%; with Solanum nigrum (SOLNI) [10] it was 90%; in [11], 100%; in test [12], 30%.

For `COC(=O)c1nc(C2CC2)nc(NCc2ccc(OC)cc2)c1Cl` [Compound 4-80, 5-Chloro-2-cyclopropyl-6-methoxycarbonyl-4-(4-methoxyphenyl-methylamino)-pyrimidine], the pest or weed control at 1000 g/ha in test [1] was determined as 90%; in [2], 50%; in the test with Setaria faberi (SETFA) [3], 60%; with Solanum nigrum (SOLNI) [4], 90%; in [5] it was 90%; in test [6], 40%. Moreover, the pest or weed control at 1000 g/ha is 100% in test [7]; 60% in test [8]; 90% in the test with Setaria faberi (SETFA) [9]; 100% with Solanum nigrum (SOLNI) [10]; 100% in test [11]; 30% in test [12].

Take `CCCCOc1ccc(CNc2nc(C3CC3)nc(C(=O)OC)c2Cl)cc1` [Compound 4-82, 4-(4-^nButoxyphenyl-methylamino)-5-chloro-2-cyclo-propyl-6-methoxy-carbonylpyrimidine]: the pest or weed control at 1000 g/ha in [1] came to 90%; in test [2] it was 60%; in the test with Setaria faberi (SETFA) [3], 80%; in the test on Solanum nigrum (SOLNI) [4], 90%; in test [5], 100%; in test [6], 40%. The pest or weed control at 1000 g/ha in test [7] is 100%; in [8] it was 60%; with Setaria faberi (SETFA) [9], 80%; in the test on Solanum nigrum (SOLNI) [10], 100%; in test [11], 100%; in [12], 30%.

For `COC(=O)c1nc(C2CC2)nc(NCc2ccc(OC(F)(F)F)cc2)c1Cl` [Compound 4-83, 5-Chloro-2-cyclopropyl-6-methoxycarbonyl-4-(4-trifluoromethoxy-phenylmethyl-amino)pyrimidine], the pest or weed control at 1000 g/ha in [1] came to 60%; in test [2], 0%; in the test on Setaria faberi (SETFA) [3] it was 10%; in the test with Solanum nigrum (SOLNI) [4], 40%; in test [5] it was 50%; in test [6], 0%. Also, the pest or weed control at 1000 g/ha in test [7] came out at 100%; in test [8], 60%; in the test with Setaria faberi (SETFA) [9] it was 90%; in the test on Solanum nigrum (SOLNI) [10], 100%; in test [11], 100%; in test [12], 20%.

Turning to `COC(=O)c1nc(C2CC2)nc(NCc2ccc(N)cc2)c1Cl` [Compound 4-86, 4-(4-Aminophenyl-methylamino)-5-chloro-2-cyclopropyl-6-methoxycarbonyl-pyrimidine], the pest or weed control at 1000 g/ha in test [1] is 100%; in [2], 70%; in the test on Setaria faberi (SETFA) [3], 80%; in the test with Solanum nigrum (SOLNI) [4], 100%; in [5], 100%; in [6], 60%. The pest or weed control at 1000 g/ha in [7] stood at 100%; in test [8], 70%; in the test on Setaria faberi (SETFA) [9], 90%; with Solanum nigrum (SOLNI) [10], 100%; in test [11], 100%; in test [12], 50%.

Regarding `COC(=O)c1nc(C2CC2)nc(NCc2ccc(N(C)C)cc2)c1Cl` [Compound 4-87, 5-Chloro-2-cyclopropyl-4-(4-dimethylamino-phenylmethyl-amino)-6-methoxycarbonyl-pyrimidine], the pest or weed control at 1000 g/ha in [1] was determined as 100%; in test [2], 90%; with Setaria faberi (SETFA) [3], 90%; in the test on Solanum nigrum (SOLNI) [4] it was 100%; in [5], 100%; in test [6], 90%. The pest or weed control at 1000 g/ha in test [7] came to 100%; in test [8] it was 60%; in the test with Setaria faberi (SETFA) [9] it was 100%; in the test on Solanum nigrum (SOLNI) [10], 100%; in test [11], 100%; in test [12] it was 60%.
